Results as given in US8901276B2, “Peptide reagents and methods for detection of colon dysplasia” (The Regents of the University of Michigan, priority 2010, dated 2014).
Blank lines part the entries; values can stand above or below the substance they belong to. Where no end group is shown, it is not given here.

Columns and labels:
SW480 cells [1] = assay: Flow cytometry of FITC-labeled AKP peptides; format: cell-based, human; settings: 10 μM, 60 min, 4° C.
Source text: (§1) Peptides labeled with 5-FITC were used for the validation assays of cell binding. Preferential binding of the multimer peptide, monomer peptide, and trilysine to different human colorectal cancer (SW480, and HT29) and control cells (CCD841-Con) was validated on flow cytometry. A total of 5×10^5 cells were used with each probe. The confluent cells were detached using enzyme free cell dissociation buffer (Invitrogen, Carlsbad, Calif.) or trypsin with 0.25% EDTA (Mediatech Inc, Manassa, Va.) and immersed in blocking buffer, PBS with 1% bovine serum albumin (BSA), for 30 min at 4° C. with continuous agitation. After blocking, cells were washed with 1×PBS and spun down for 5 min at 1000 rpm. Then cells were incubated with the 5-FITC labeled peptides and trilysine (10 μM) for 60 min at 4° C. with continuous agitation. The cells were then washed 3× with cold PBST followed by immediate fixation for 10 min with 4% paraformaldehyde. The cells were washed again (1×) with PBS and resuspended in 1 mL of PBS. Flow cytometry was performed using FACSDiVa (BD® LSRII, BD Biosciences, San Jose, Calif.) and analyzed using Flowjo analysis program (Tree Star Inc, Ashland, Oreg.). The gain was kept constant for all experiments.

CCD-841Con cells [2] = assay: Flow cytometry of FITC-labeled AKP peptides; format: cell-based, human; settings: 10 μM, 60 min, 4° C.
Source text: as §1

HT29 cells [3] = assay: Flow cytometry of FITC-labeled AKP peptides; format: cell-based, human
Source text: as §1

SW480 cells [4] = assay: Fluorescence microscopy of FITC-labeled AKP peptides; format: cell-based, human; settings: 10 μM, 4° C., 1 hr
Description: (§2) Preferential binding of the FITC-labeled peptides to the target and non-target cells as mentioned above was further validated via fluorescence microscopy. Cells (˜7.5×10^3) were seeded on cover slips to ˜80% confluence. The cells were then incubated with 10 μM of 5-FITC-labeled peptides and trilysine at 4° C. for 1 hr followed by staining with 1 μg/mL Hoechst dye (Sigma Aldrich, St. Louis, Mo.). The cells were washed 3× with PBS and fixed with 4% paraformaldehyde at RT for 10 min. After fixation, the cells were washed again with PBS (1×) and mounted with ProLong Gold reagent (Invitrogen, Carlsbad, Calif.) and fluorescence images were collected with confocal microscopy (Leica TCS SP5 Microsystems, Bannockburn, Ill.). The specific peptide binding activity of the FITC-labeled AKP-multimer and AKP-monomer peptides was compared.

CCD-841Con cells [5] = assay: as above; format: cell-based, human; settings: 10 μM, 4° C., 1 hr
Description: as §2

HT29 cells [6] = assay: as above; format: cell-based, human
Description: as §2

HT29 cells [7] = assay: Kinetic measurements by flow cytometry; format: binding, human; settings: for rate constant K: 10 μM, 4° C., 0-60 min, first order fit
Description: The binding kinetics for AKP-monomer and AKP-multimer peptide was further evaluated on the target cells in the presence of 10 μM peptide concentration. The target cells (5×10^5) were detached and blocked as mentioned earlier and incubated with both monomer and multimer peptides at 4° C. over time from 0-60 min. After completing the incubation for each time course, the samples were prepared for flow cytometry, as mentioned above. The kinetics of peptide binding with the cell surface was determined by measuring the shift in the intensity of FITC-channel as a function of time. The resulting data were converted to median values as a function of time, and the rate constant was calculated using first order rate kinetics Y=a−b*exp^(−kx); where a=maximum value, b=difference in intensity (I−I0), and K=rate constant. Curve fits were performed using Origin 6.1 data analysis software.

colonic adenomas [8] = assay: In vivo NIR imaging of Cy5.5-labeled AKP peptides; set-up: species or system CPC;Apc mice; settings: for T/B ratio: 100 μM, 1.5 mL topical, 5 min; for detection of lesions by size: adenomas ˜0.5 to 4 mm
Description: The binding activity of the synthetic peptides to colonic dysplasia was assessed in vivo in 3 cohorts of CPC;Apc mice: 1) AKP-multimer, n=14 mice with n=33 adenomas, 2) AKP-monomer, n=14 mice with n=27 adenomas, and 3) trilysine core, n=8 mice with n=17 adenomas as a control. For the imaging studies, anesthesia was induced and maintained in the animals with inhaled isoflurane mixed with oxygen via a nose cone at a dose of 4% and 2% at a flow rate of 0.5 liter/min, respectively. Prior to applying the peptides, the colon was prepped using a tap water lavage. The adenomas were viewed endoscopically, and videos were recorded using white light with a small animal endoscope (Karl Storz Veterinary Endoscopy, Goleta, Calif.). The colon was rinsed with water until all mucous and other debris was removed. Adenomas from approximately 0.5-4 mm in diameter that were not covered in debris, including stool and mucous, were included in the study.
The Cy5.5-labeled peptides were delivered at a concentration of 100 μM in PBS containing 2.5% DMSO (dimethyl sulfoxide) through the instrument channel of the endoscope. During peptide administration, 1.5 mL of peptide was delivered to the distal colon in each mouse. The peptide was allowed to incubate for 5 min after which the colon was cleansed 3× with a tap water to remove the unbound peptide. Prior to imaging, the colon was inspected for residual peptide solution, and when clean, the colon was insufflated with air and imaged with the wide field endoscope which provides excitation at 671 nm. Fluorescence and reflectance videos were collected using Axiovision 4.8.1 software. Fluorescence videos were collected at 100 ms/frame (10 Hz), and transferred to the computer for storage by a firewire connection. A filter wheel was incorporated into the handle of the housing to quickly switch between collection of reflectance and fluorescence images. White light, fluorescence and reflectance images were collected from 1) n=14 mice having n=33 adenomas with AKP-multimer, 2) n=14 mice having n=27 adenomas with AKP-monomer, and 3) n=8 mice having n=17 adenomas with the trilysine (control). The CPC;Apc mice imaged ranged in age from 3 to 6 months. Fluorescence images were exported as videos in zvi format (16 bit digital resolution) using LabView software. Sequentially-collected white light and fluorescence images for each adenoma were analyzed. Separate regions of interest (ROI) were defined around the adenoma and adjacent normal-appearing mucosa on the white light image, and the ROI's were overlayed onto the fluorescence images. The target to-background (T/B) ratio was determined by ratioing the mean intensities from these 2 ROI's.

HT29 cells [9] = assay: Measurement of binding affinity by flow cytometry; set-up: species or system human; settings: FITC-labeled, 0 to 10 μM, 4° C., 1 hr
Description: (§3) The binding affinity of multimer and monomer peptide was measured by varying the concentration of the 5-FITC-labeled peptides and trilysine incubated with the target cells (1×10^5) until saturation of fluorscence intensity was achieved. The FITC-labeled peptide was serially diluted in PBS at concentrations that varied from 0 to 10 μM and incubated with the target cells at 4° C. for 1 hr. The unbound peptide was rinsed off the cells by washing 3× with cold PBS/0.2% Tween-20 solution. The cells were fixed with 4% PFA, as mentioned above, washed 1× with PBS, and resuspended in 1 mL of PBS. Cells were transferred to a 5 mL tube and subjected to flow-cytometric analysis. The median fluorescence intensity from each concentration of peptides was used to calculate the affinity constant. The equilibrium dissociation constants (Kd=1/Ka) of the peptide-cell interaction were obtained by fitting the data to the non-linear equation I[X]=(I0+ImaxKa[X])/(I0+Ka[X]). I0 and Imax are the initial and maximum fluorescence intensities, corresponding to no peptide and at saturation, respectively, and [X] represents the concentration of the bound peptide. Origin 6.1 data analysis software (Origin Lab Corp, Northampton, Mass.) was used to perform a non-linear least square fit of the data.

SW480 cell line = assay: Measurement of binding affinity by flow cytometry; set-up: species or system human; settings: FITC-labeled, 0 to 10 μM, 4° C., 1 hr
Description: as §3

[10] = tested on: isolated colonic epithelial cells from adenomas; assay: Flow cytometry of FITC-conjugated phage clones; format: cell-based, CPC;Apc mice
Source text: Specific binding of the candidate peptides to primary dysplastic colonic epithelial cells were validated on flow cytometry ex vivo and with small animal endoscopy in vivo using FITC-labeled peptides using a non-scanning white light endoscope.
Phages that bound to colonic adenomas approximately 10 times greater in number than to normal appearing colonic mucosa were chosen. As a result, 42 individual phage clones were sequenced from the third round of biopanning, and were individually amplified and conjugated to 5′-FITC. Binding to isolated colonic epithelial cells from adenomas for each phage clone was analyzed using flow cytometry. A common 7-mer phage that expresses the sequence HAIYPRH (SEQ ID NO: 29) is a known contaminant, and was run (labeled # in Supplementary FIG. 1B) to ensure the validity of the assay. […] Six phage clones with a T/B ratio (target to wild-type phage)>1.9 were identified as ALTPTPP (SEQ ID NO: 30), NLVNLLP (SEQ ID NO: 31), ANYPREP (SEQ ID NO: 32), ATTVPAS (SEQ ID NO: 33), LTTHYKL (SEQ ID NO: 26), and AKPGYLS (SEQ ID NO: 25). The KCCFPAQ (SEQ ID NO: 2) peptide had been previously found to bind to human HT29 cells.

colonic adenomas [11] = assay: In vivo small animal fluorescence endoscopy with FITC-labeled peptides; set-up: species or system CPC;Apc mice; settings: topical, 5 min incubation, mean±SD
Description: Prior to peptide administration, the colon was prepped using a tap water lavage. Using a small animal endoscope (Karl Storz Veterinary Endoscopy, Goleta, Calif.) with an instrument channel for performing biopsy, polyps suitable for peptide administration were located and the colon was rinsed with water until all mucous was removed. FITC-labeled Peptide 1 and Control peptide 1 were delivered in 1×PBS through the instrument channel. The peptides were allowed to incubate for 5 minutes after which the colon was cleansed 3× with a tap water to remove the unbound peptide. […] Fluorescence excitation produced with a 450-475 nm passband filter that can be manually switched to the optical path of a 175 W Nova Xenon light source was delivered to the endoscope via a 3 mm diameter fluid light cable (250 cm length). Fluorescence images were collected with a 510 nm long-pass barrier filter to block the excitation light and detected with a 3-chip color camera with an integrated parfocal zoom lens. Real time video was recorded via firewire connected to a personal computer. Polyps in CPC;Apc mice developing distal colonic adenomas (Peptide 1, n=6 mice, n=18 polyps; Control peptide 1, n=4 mice, n=7 polyps) in addition to Cre recombinase negative littermate controls (Peptide 1, n=2 mice) and Hyperplastic Kras mice (Peptide 1, n=3 mice) were imaged using both white light and fluorescence endoscopy. […]

[12] = tested on: dysplastic crypts of excised polyps; assay: Confocal fluorescence imaging of ex vivo binding; set-up: species or system CPC;Apc mice; settings: ex vivo incubated polyps
Description: Preferential binding of the Peptide 1 compared to the Control peptide 1 on the adenomatous polyps was again confirmed with confocal microscopy. After peptide incubation, excised polyps were incubated ex vivo in 1 μg/mL Hoechst dye for 5 min to stain living nuclei, rinsed 3× with 1×PBS and imaged on an Olympus Confocal Microscope (Olympus, Tokyo, Japan).

[13] = cell line not specified (SW480, HT29, CCD-841Con tested)

Substance: AKP-multimer: tetrameric version of AKPGYLS anchored on a trilysine core; Cy5.5 label in vivo, FITC label in vitro (also: tetramer on trilysine core, Cy5.5 or FITC label)
counts relative to unstained cells (SW480 cells [1]): 20.2 times
counts relative to unstained cells (CCD-841Con cells [2]): 2.2 times
counts relative to unstained cells (HT29 cells [3]; HT29, FITC-labeled, 10 μM, 60 min, 4° C.): 26.1 times
binding to plasma membrane (SW480 cells [4]): bound specifically to the plasma membrane
binding to plasma membrane (CCD-841Con cells [5]): not to CCD-841Con cells
binding to plasma membrane (HT29 cells [6]; HT29, FITC-labeled, 10 μM, 4° C., 1 hr): bound specifically to the plasma membrane
binding speed relative to AKP-monomer (HT29 cells [7]): ~2 fold
rate constant K (HT29 cells [7]): 0.1136 min⁻¹
rate constant K (HT29 cells [7]; listed as multimer): 0.1136 min⁻¹
NIR fluorescence signal from adenomas (colonic adenomas [8]; Cy5.5-labeled): significantly amplified
average fluorescence intensity from colonic adenomas relative to AKP-monomer and trilysine control (colonic adenomas [8]; Cy5.5-labeled): ~1.8 fold
T/B ratio (colonic adenomas [8]; Cy5.5-labeled): 3.84±0.26
detection of lesions by size (colonic adenomas [8]): detected all lesions regardless of size
Kd (HT29 cells [9]): 6.4 nM
Kd (SW480 cell line): 101 nM

Substance: HAIYPRH
T/B ratio (target to wild-type phage) [10]: 1.10±0.08

binding to dysplastic crypts, confocal microscopy [12]: Minimal to no binding
Substance: GGGAGGGA [FITC-Control peptide 1, control peptide containing Gly and Ala, FITC-labeled]
T/B (polyp/normal colon, target to background ratio) (colonic adenomas [11]): 1.14±0.15

Substance: AKPGYLSGGGSK-NH2 [AKP-monomer, Cy5.5 label in vivo, FITC label in vitro]
extent of cell binding on flow cytometry (HT29 cells [3]; [13]): bound to a lower extent than the AKP-multimer
cell staining on microscopy (HT29 cells [6]; [13]): lower fluorescence intensity at the cell surface
rate constant K (HT29 cells [7]): 0.0663 min⁻¹
NIR fluorescence signal from adenomas (colonic adenomas [8]; Cy5.5-labeled): faint fluorescence intensity
T/B ratio (colonic adenomas [8]; Cy5.5-labeled): 2.21±0.13
detection of lesions by size (colonic adenomas [8]): did not visualize lesions smaller than ˜1 mm
Kd (HT29 cells [9]): 310 nM
Kd (SW480 cell line): 1210 nM
